Assays:
NK-92 cells = assay: IFN-γ production in NK-92 cells (ELISA); assay type: cell-based, human; conditions: IL-12 10 pM, 16 to 24 hours
Procedure: (§1) Two assays show the bioactivity of IL-12 and IL-18 alone. NK-92 is a natural killer line derived from a patient with malignant […] lymphoma. KG-1 is a myelomonocytic line derived from a patient with acute myelogenous leukemia. NK-92 and KG-1 cells constitutively express the IL-12 and IL-18 receptors, respectively.
(§2) KG-1 cells were cultured in serum-free medium for 24 hours, and then plated at 1×10^6 cells/ml in 96-well plates. As indicated, IL-18 (50 nM) or DEX (20 nM) were added. NK-92 cells were cultured in the presence of 10 U/ml IL-2, and plated at 2.5×10^4 viable (Trypan Blue negative) cells/ml in 96-well plates. As indicated, IL-12 (10 pM) or DEX (20 nM) were added. The KG-1 and NK-92 cells were incubated for 16 to 24 hours, and the amount of IFN-γ in the culture medium was determined using the Biosource Cytoscreen IFN-γ ELISA kit.

KG-1 cells = assay: IFN-γ production in KG-1 cells (ELISA); assay type: cell-based, human; conditions: IL-18 50 nM, 16 to 24 hours
Procedure: as §1, §2

Substance | IFN-γ production (NK-92 cells) | IFN-γ production (KG-1 cells)
Interleukin-12 [IL-12] | induce IFN-γ production | –
Interleukin-18 [IL-18] | – | induce IFN-γ production
